From patent US8680129B2, “Compounds, composition, methods, targets for cancer therapy” (priority 2008, dated 2014)
pIC50: −log10 of the molar value. Where two headings read alike, the source gives them in different places.

Key:
[1] = test system: UM-SCC6 cells; experiment: Other tetrazolium salts as substitutes of WST-1r with apigenin, cell viability; format: cell-based, human; conditions: 1 mM WST-1, 0.4 mM WST-3, 0.5 mM WST-4, 0.5 mM WST-5, 0.12 mM mPMS; apigenin 10, 30 or 100 μM; 4 hours then 24 hours
Method: (§1) Method: HT1080 and UM-SCC6 cells were treated with 1 mM WST-1, 0.4 mM WST-3, 0.5 mM WST-4, 0.5 mM WST-5 or 0.12 mM mPMS alone or each of the WST-3, WST-4, and WST-5 at the same concentration in combination with 0.12 mM mPMS (0.4 mM WST-3+0.12 mM mPMS, 0.5 mM WST-4+0.12 mM mPMS, 0.5 mM WST-5+0.12 mM mPMS) plus 10, 30 or 100 μM apigenin for 4 hours and, then changed to normal growth medium for another 24 hours. Cell viability was measured with CCK8 Kit.

[2] = test system: HT1080 cells; experiment: as above; format: cell-based, human; conditions: 1 mM WST-1, 0.4 mM WST-3, 0.5 mM WST-4, 0.5 mM WST-5, 0.12 mM mPMS; apigenin 10, 30 or 100 μM; 4 hours then 24 hours
Method: as §1

[3] = test system: non cancer HEKa cells; experiment: WST-3 with apigenin, cell viability by CCK8; format: cell-based, human; conditions: for cell death, single agent: apigenin or WST-3 alone
Method: (§2) Method: UM-SCC6, HT1080, Cal27, SK-Mel-5, and HEKa cells were treated with 50 or 100 μM WST-3 or 10 or 30 μM apigenin alone, or combination of WST-3 and apigenin at different concentrations for 4 hours with untreated cells as control, then, changed to normal growth medium and remained culture in this medium for another 24 hours. After the 24 hours culture, cell viabilities were measured with CCK8 Kit. Data were normalized to % of untreated control cells.

[4] = test system: SK-Mel-5 cells; experiment: WST-3 with apigenin, cell viability by CCK8; format: cell-based, human; conditions: for cell death, single agent: apigenin or WST-3 alone
Method: as §2

[5] = test system: UM-SCC6, HT1080, Cal27, SK-Mel-5, and HEKa cells; experiment: WST-3 or apigenin alone, cell viability, all tested lines; format: cell-based, human; conditions: 50 µM WST-3 or 30 μM apigenin alone, 4 hours then 24 hours
Method: as §2

[6] = test system: UM-SCC-6 cells; experiment: pUC19 DNA transfection plus chemotherapeutic drug, cell viability; format: cell-based, human; conditions: for IC50 of Cis-Platinum: UM-SCC-6 cells; for pIC50: Homo sapiens, read-out: IC50 of 5-FU
Method: UM-SCC-6 cells were transfected with pUC19 DNA, pcDNA3, pUC19+pcDNA3, IKK1-KA+pUC19, IKK2-KA+pUC19, and IKK1-KA+IKK2-KA+pUC19, IKK1-KA+pcDNA3, IKK2-KA+pcDNA3, or IKK1-KA+IKK2-KA+pcDNA3, for 48 hours and, treated with variable doses of 5-FU (FIG. 6A) or Cis-Platinum (FIG. 6B) for […] respectively. Cell viabilities were measured in 72 and 96 hours respectively after drug treatment.

[7] = test system: HT1080 cells; experiment: as above; format: cell-based, human; conditions: for IC50 of Cis-Platinum: HT1080 cells
Method: HT1080 Cells were transfected with pUC19 DNA, pcDNA3, pUC19+pcDNA3, IKK1-KA+pUC19, IKK2-KA+pUC19, and IKK1-KA+IKK2-KA+pUC19, IKK1-KA+pcDNA3, IKK2-KA+pcDNA3, or IKK1-KA+IKK2-KA+pcDNA3, for 48 hours before the treatment of chemotherapy drugs at various doses. Cell viability was measured in 72 and 96 hours after drug treatment.
Drug treatment: Cis-Platinum 30 ng/ml-3 μg/ml (FIG. 6D), Paclitaxel 1 nM-10 μM (FIG. 6C), 5-FU 50 nM-500 μM (data not shown), Doxorubicin 30 nM-3.3 μM (data not shown).

[8] = test system: HT1080 cells; experiment: siRNA or Puc19 transfection combined with Taxel, cell viability by CCK8; format: cell-based, human; conditions: 72 hours after the treatment
Method: Method: HT1080 cells transfected with siRNAs that were derived from Puc19 DNA sequence and the siRNAs that targeting the corresponding genes that are the targets of the Puc19 derived siRNAs for 24 hours, then, treated with Taxel at 3, 10, 30, and 100 nM for 48 hours. After the 48 hours of Taxel treatment, cells in culture were changed to normal growth medium for 24 to 72 hours. Cell viability was monitored by CCK8 Kit every 24 hours. Data are normalized to % of untreated control cells. The siRNAs that used for this study includes siRNA#1, siRNA#2, siRHA#3, siRNA targeting TRPC6, SH3PXD2B, C6orf108, TTBK1, MAGI3, and TMEM182 as well as combination of siRNA#2+#3, and siRNA#1+#2+#3+#4+#5 (siRNAΣ1-5).

[9] = test system: UM-SCC6, Cal27 and HEKa cells; experiment: Modified WST-1r and Apigenin, cancer versus non-cancer cells, single agents; format: cell-based, human; conditions: 10% modified WST-1r (mPMS 20 μM, WST-1c 1 mM) or Apigenin 30 or 100 μM, 4 hours then 24 hours
Method: Comparison of cell responses to modified WST-1r and Apigenin combination treatment between cancer cells and non-cancer cells. UM-SCC6, Cal27 human head and neck cancer cell lines and primary cultured human […] keratinocytes (HEKa) as labeled were treated with 10% modified WST-1r (mPMS 20 μM, WST-1c 1 mM) with (WST-1r 10) or without (WST-1r 0) 10% modified WST-1r in combination with 0 (Apigenin 0), 30 (Apigenin 30) or 100 (Apigenin 100) μM Apigenin for 4 hours, then, changed to apigenin in the corresponding concentrations for another 24 hours.

[10] = test system: UM-SCC6 cells; experiment: mPMS dose-response with WST-1c and apigenin, cell viability; format: cell-based, human; conditions: mPMS variable with 1 mM WST-1c and 10, 30 or 100 μM apigenin
Method: (§3) Method: A & B: HT1080 (FIG. 16A) and UM-SCC6 (FIG. 16B) cells were treated with variable concentrations of mPMS as indicated in combination with 1 mM WST-1c and 10, 30 or 100 μM apigenin for 4 hours and, then, changed to normal growth medium for another 24 hours. Cell viabilities were measured by CCK8 Kit. 1 mM WST-1 only, 0.12 mM mPMS only and 10% WST-1r were used as parallel control. AP 0: Untreated Control, AP 10: 10 μM Apigenin, AP 30: 30 μM Apigenin, AP 100: 100 μM Apigenin.

[11] = test system: HT1080 cells; experiment: as above; format: cell-based, human; conditions: mPMS variable with 1 mM WST-1c and 10, 30 or 100 μM apigenin
Method: as §3

[12] = test system: phosphorylated JNK in UM-SCC6 cells; experiment: JNK phosphorylation (FACE Kit); format: cell-based, human; conditions: 4 hours
Method: Method: UM-SCC6 cells were treated with WST-1r and apigenin at the indicated doses for 4 hours, and then phosphorylated JNK and total JNK were measured in parallel with FACE Kit (Qiogen). The resulting data were normalized to total cell number measured by crystal violet staining The phosphorylated JNK from each measurement were normalized to the ratio of phosphorylated JNK over total JNK values.

[13] = test system: A431 cells; experiment: WST-1r and apigenin dose-response, cell viability by CCK8; format: cell-based
Method: (§4) Method: UM-SCC6, MDA-MB-231, Cal27, HT1080, T294, B6-5 and A431 cells were treated with 3% or 10% of WST-1r or 10, 30, or 100 μM apigenin or combination of variable concentrations of WST-1r with apigenin in parallel with untreated control cells and DMSO control for 4 hours, then, the treatments were removed and the cells, thus, treated were changed to normal growth medium and maintained in culture for another 24 hours. DMSO was used as vehicle control. Cell viabilities were measured by CCK8 Kit and normalized to % of untreated control calls.

[14] = test system: MDA-MB-231 cells; experiment: as above; format: cell-based
Method: as §4

[15] = test system: ROS generation in UM-SCC6 cells; experiment: Dose response of ROS generation (CM-H2-DCFDA fluorescence); format: cell-based, human
Method: Method: UM-SCC6 cells were labeled with 10 μM CM-H2-DCFDA for 15 minutes and then treated with WST-1r or CCK8 at the indicated amounts in combination with variable doses of apigenin (A) or IKK Inhibitor III (B) for 4 hours. Fluorescence at Ex485/Em535 were measured for detecting ROS generation that labeled by the CM-H2-DCFDA.

[16] = test system: UM-SCC6 cells; experiment: CCK8, XTT, WST-1r comparison in combination with apigenin, cell viability; format: cell-based, human; conditions: for pIC50: Homo sapiens, read-out: Apigenin 1050
Method: Method: HT1080 and UM-SCC6 cells were treated with 10% of WST-1r, CCK8 or XTT in combination with variable doses of apigenin for 4 hours and, then changed to normal growth medium for another 24 hours. Cell viability was measured with CCK8 kit.

[17] = combination of 30 μM apigenin and WST-3
[18] = 4 hours, then 24 hours normal medium, combination 3% WST-1r with 100 μM apigenin or 10% WST-1r with 30 μM apigenin

Compound: COc1cc(-c2ccc(-n3nc(-c4ccc(C(=O)N(CCS(=O)(=O)[O-])CCS(=O)(=O)[O-])cc4)n[n+]3-c3nc4ccccc4s3)c(OC)c2)ccc1-n1nc(-c2ccc(C(=O)N(CCS(=O)(=O)[O-])CCS(=O)(=O)[O-])cc2)n[n+]1-c1nc2ccccc2s1.[Na+].[Na+] [WST-5]
- synergistic effect on inducing cell death in combination with apigenin [1]: no such effect
- synergistic effect on inducing cell death in combination with apigenin [2]: no such effect

Compound: O=[N+]([O-])c1ccc(-[n+]2nc(-c3ccc(S(=O)(=O)[O-])cc3S(=O)(=O)[O-])nn2-c2ccc(I)cc2)c([N+](=O)[O-])c1.[Na+] [WST-3, 2-(4-Iodophenyl)-3-(2,4-dinitrophenyl)-5-(2,4-disulfophenyl)-2H-tetrazolium, sodium salt]
- cell death, single agent [3]: limited cell death
- pIC50 [3, 17]: 4.40
- cell death, single agent [4]: dose dependent but limited cell death
- pIC50 [4, 17]: 4.70
- WST-3 IC50 in SK-Mel-5 compared with HEKa cells ([4]; combination with 30 μM apigenin): one fold less than that from HEKa cells
- cell death, single agent [5]: no or limited effect of cell death

Compound: N.N.[Cl][Pt][Cl] [Cis-Platinum, cis-diamminedichloroplatinum]
- IC50 of Cis-Platinum ([6]; pUC19 transfected): 1 µg/mL
- IC50 of Cis-Platinum ([6]; untransfecte control): 3 µg/mL
- IC50 of Cis-Platinum ([7]; pUC19 transfected): 0.3 µg/mL
- IC50 of Cis-Platinum ([7]; untransfecte control): 3 µg/mL
- untransfected cells at 96 hours after drug treatment [7]: recovered and grown up

Compound: CC(=O)O[C@H]1C(=O)[C@@]2(C)[C@H]([C@H](OC(=O)c3ccccc3)[C@]3(O)C[C@H](OC(=O)[C@H](O)[C@@H](NC(=O)c4ccccc4)c4ccccc4)C(C)=C1C3(C)C)[C@]1(OC(C)=O)CO[C@@H]1C[C@@H]2O [Paclitaxel]
- pIC50 ([8]; Homo sapiens, HT-1080, Contrl (untransfected)): 7.22
- cell survival / cell death ([8]; Taxel 3-100 nM): dose dependent cell death
- pIC50 ([7]; Homo sapiens, HT-1080, pUC19 transfected HT1080 cells, read-out: IC50 of texal): 7.70
- response to texal ([7]; untransfected HT1080 cells): did not show any response upto 100 nM
- untransfected cells at 96 hours after drug treatment [7]: recovered and grown up

Compound: O=c1cc(-c2ccc(O)cc2)oc2cc(O)cc(O)c12 [Apigenin, 4H-1-benzopyran-4-one,5,7-dihydroxy-2-(4-hydroxy-phenyl)-(9CI)]
- cell viabilities, single agent treatment [9]: little effect on cell viabilities
- cell death, single agent [3]: limited cell death
- cell death, single agent [4]: dose dependent but limited cell death
- cell death, single agent [5]: no or limited effect of cell death
- cell death [10]: dose dependent cell death
- cell death [11]: dose dependent cell death
- phosphorylation of JNK (ratio phosphorylated over total JNK) [12]: dose dependent induction of phosphorylation of JNK
- cell death / cell survival [13, 18]: little effect on cell survival
- pIC50 ([13]; Homo sapiens, A-431, in the presence of 10% WST-1r): 5.00
- cell death / cell survival [14, 18]: little effect on cell survival
- pIC50 ([14]; Homo sapiens, MDA-MB-231, in the presence of 10% WST-1r): 5.00
- ROS generation, agent alone ([15]; 4 hours): no effect on ROS generation
- ROS generation ([15]; apigenin combined with CCK8, apigenin dose dependent): increase the ROS generation
- Apigenin 1050 ([16]; CCK8+apigenin): did not reached 1050
- pIC50 ([16]; 10% WST-1r treated UM-SCC6 cells): 5.30
- pIC50 ([16]; 10% XTT treated UM-SCC6 cells): 4.60
- Apigenin 1050 ([16]; apigenin only): did not reached 1050

Compound: O=c1[nH]cc(F)c(=O)[nH]1 [5-FU, 5-fluoro-2,4-(1H,3H) pyrimidinedione]
- pIC50 ([6]; pUC19 transfected UM-SCC6 cells): 3.70
- pIC50 ([6]; untransfected UM-SCC6 cells): < 3.00
